Where two headings read alike, the source gives them in different places.
How the values were obtained:
[1] = biological target: Rhizobium etli rhizavidin variant monodin (MA, MA-His6), monomeric, A67D/G71K/A82N/G84Q/S101R/A105K + S23H/Q46E/E115W, SEQ ID NO: 3 (Rhizobium etli, UniProt Q8KKW2, A102N/A125K/A87D/E135W/G104Q/G91K/Q66E/S121R/S43H); test: Kd measurement by competition binding for [^3H]biotin against RAWH, monodin
Procedure: (§1) Mixtures were incubated at 37° C. for 20 h to reach equilibration. […] After 1 h incubation at room temperature, the beads were cleared by centrifugation at 13,000 rpm for 1 min. […] Samples were heated to 95° C. for 30 min, and then counted in a liquid scintillation counter. The Kd ratios between competing avidin proteins were calculated with Matlab (Mathworks) using the foregoing formula (Qureshi, M. H. & Wong, S. L. Protein Expr. Purif. 25, 409-415 (2002)).

biotin-GFP = biotin-GFP (Aequorea victoria, UniProt P42212, A206V/E111V/F223Y/F64L/F99S/I128T/I167V/I171V/K158E/K166T/K26E/L221H/M153T/N105K/N149D/N164E/Q80R/S205T/S30R/S65T/T225N/V163A/Y145F/Y39I); settings: Biotin-GFP
Procedure: After incubation at the indicated temperature (23° C., 37° C., or 45° C.) for varying time points (between 0 to 10 h), protein-conjugate mixtures were loaded onto a 15% native polyacrylamide gel. […] Data as ln(fraction bound) versus time and fitting the data to a straight line by linear regression.

biotin-DNA = test: Gel-based off-rate measurement against biotin-DNA-fluorescein; format: binding; settings: 10 h
[2] = biological target: Rhizobium etli rhizavidin variant RAWH (RAWH-His6), E115W/S23H (Rhizobium etli, UniProt Q8KKW2, E135W/S43H); test: Kd measurement by competition binding for [^3H]biotin against streptavidin, RAWH
Procedure: as §1

HeLa cells = test: Clustering and internalization of biotinylated cell-surface proteins; format: cell-based; settings: Cy5-labeled avidin proteins, 37° C.
Procedure: Following biotinylation, the cells were washed twice with cold PBS-CM, treated with 100 mM glycine in PBS-CM for blocking, and washed again twice with cold PBS. […] Unbound avidin proteins were removed, and media was replaced with pre-warmed DMEM (37° C.). Cells were incubated for 5, 10, or 30 m at 37° C. Cells were washed, and fixed with 4% formaldehyde in PBS for confocal imaging (ZEISS, LSM510 META). To visualize endosome or lysozome-specific proteins, cells were fixed, permeabilized, and incubated with a primary antibody: anti-Rab11 (a GTPase of recycling endosome, Abcham) or anti-LAM P1 (Lysosomal-associated membrane protein 1, Abcham). Afterward, cells were incubated with a fluorescent secondary antibody (goat anti-rabbit 555, Abcham), and images were acquired with a confocal microscopy (ZEISS, LSM510 META).

[3] = biological target: Rhizobium etli rhizavidin variant monodin (MA), monomeric, A67D/G71K/A82N/G84Q/S101R/A105K + S23H/Q46E/E115W, SEQ ID NO: 3 (Rhizobium etli, UniProt Q8KKW2, A102N/A125K/A87D/E135W/G104Q/G91K/Q66E/S121R/S43H); test: [^3H]biotin off-rate assay, monodin; format: binding; settings: free [^3H]biotin, excess cold biotin, 37° C.
Procedure: [^3H]Biotin Off-Rate Assay
At time-points taken over 5 h at 37° C., 150 μL of aliquots were removed, and added to 600 μL of 0.2 M ZnSO4 (chilled with ice), followed by addition of 600 μL of 0.2 M NaOH. […] Dissociation rates were deduced as discussed above.

Sequence of Rhizobium etli rhizavidin variant RAWH (RAWH-His6), E115W/S23H (Q8KKW2 entry or part of it S43H/E135W): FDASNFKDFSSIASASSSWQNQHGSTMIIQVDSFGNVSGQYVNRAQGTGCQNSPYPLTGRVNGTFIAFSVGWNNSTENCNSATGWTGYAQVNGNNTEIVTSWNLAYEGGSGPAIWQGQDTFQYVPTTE
Sequence of Rhizobium etli rhizavidin variant monodin (MA), monomeric, A67D/G71K/A82N/G84Q/S101R/A105K + S23H/Q46E/E115W, SEQ ID NO: 3 (Q8KKW2 entry or part of it S43H/Q66E/A87D/G91K/A102N/G104Q/S121R/A125K/E135W): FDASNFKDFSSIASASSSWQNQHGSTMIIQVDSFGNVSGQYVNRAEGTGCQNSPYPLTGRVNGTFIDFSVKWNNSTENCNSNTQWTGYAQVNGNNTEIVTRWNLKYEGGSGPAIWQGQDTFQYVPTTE
Sequence of Rhizobium etli rhizavidin variant monodin (MA, MA-His6), monomeric, A67D/G71K/A82N/G84Q/S101R/A105K + S23H/Q46E/E115W, SEQ ID NO: 3 (Q8KKW2 entry or part of it S43H/Q66E/A87D/G91K/A102N/G104Q/S121R/A125K/E135W): as above

Molecule | percentage of dissociated biotin conjugate after 10 h incubation with excess biotin (biotin-GFP; 23° C.) [% for 10 h*] | percentage of dissociated biotin conjugate after 10 h incubation with excess biotin (biotin-GFP; 37° C.) [% for 10 h*] | percentage of dissociated biotin conjugate after 10 h incubation with excess biotin (biotin-DNA; 23° C.) [% for 10 h*] | percentage of dissociated biotin conjugate after 10 h incubation with excess biotin (biotin-DNA; 37° C.) [% for 10 h*] | other results
O=C(O)CCCC[C@@H]1SC[C@@H]2NC(=O)N[C@@H]21 [biotin] |  |  |  |  | Kd [1]: 0.031 ± 0.01 nM
Neutravidin (NA): tetrameric neutravidin (Pierce) [reference compound] | 6.8 ± 1.6 | 16 ± 3.8 | 11 ± 4.4 | 20 ± 0.2 | percentage of dissociated biotin conjugate after 10 h incubation with excess biotin (biotin-GFP; 45° C.): 32 ± 5.0% for 10 h*; percentage of dissociated biotin conjugate after 10 h incubation with excess biotin (biotin-DNA; 37° C., listed as neutravidin): about 20%
O=C(O)CCCC[C@@H]1SC[C@@H]2NC(=O)N[C@@H]21 [[^3H]biotin] [listing 1 of 2 here] |  |  |  |  | Kd [2]: 0.0069 nM
Streptavidin (STA): tetrameric streptavidin, purchased from Abcam [reference compound] | 4.7 ± 0.3 | 22 ± 4.4 | 6.8 ± 1.8 | 17 ± 1 | Dissociation rate (biotin-GFP; 45° C., excess biotin): 1.9 ± 0.2 × 10^−5 s^−1; percentage of dissociated biotin conjugate after 10 h incubation with excess biotin (biotin-DNA; 37° C., listed as streptavidin): about 20%; incubation time after which avidin protein was internalized (HeLa cells): 10 min
O=C(O)CCCC[C@@H]1SC[C@@H]2NC(=O)N[C@@H]21 [[^3H]biotin] [listing 2 of 2 here] |  |  |  |  | off-rate [3]: 1.2±0.3×10^−5 s^−1

From patent US10017546B2 (KOREA ADVANCED INSTITUTE OF SCIENCE AND TECHNOLOGY, priority 2015, dated 2018)
